{"source": "patent US20210307321A1", "about": "“CAPSULE SUSPENSIONS WITH AGROCHEMICAL ACTIVE INGREDIENTS” (priority 2018, published 2021)", "origin": "cited, not measured here", "data": [{"smiles": "O=C(Nc1ccc(F)cc1F)c1cccnc1Oc1cccc(C(F)(F)F)c1", "note": "[Diflufenican, 2′,4′-Difluoro-2-(a,a,a-trifluoro-m-tolyloxy)nicotinanilide]", "values": [{"measurement": "solubility in non-water miscible solvents", "result": "very low solubility"}]}]}
